Assay results reported in US12084481B2 (priority 2016, dated 2024).

Test system: H^+ currents
Conditions: cited from earlier work

Compound | effect on H^+ currents
Nc1ccncc1 [4-aminopyridine] | block H^+ currents
COc1ccc(CCN(C)CCCC(C#N)(c2cc(OC)c(OC)c(OC)c2)C(C)C)cc1OC (stereo not shown) [D600] | block H^+ currents
O=C(O[C@@H]1Cc2c(O)cc(O)cc2O[C@@H]1c1cc(O)c(O)c(O)c1)c1cc(O)c(O)c(O)c1 [EGCG] | block H^+ currents
N=C(N)NC(=O)c1nc(Cl)c(N)nc1N [amiloride] | block H^+ currents
CN(C)CCC=C1c2ccccc2CCc2ccccc21 [amitryptiline] | block H^+ currents
CNCCCN1c2ccccc2CCc2ccccc21 [desipramine] | block H^+ currents
COc1ccc2c(c1)[C@]13CCCC[C@@H]1[C@H](C2)N(C)CC3 [dextromethorphan] | block H^+ currents
CNCCC(Oc1ccc(C(F)(F)F)cc1)c1ccccc1 (stereo not shown) [fluoxetine] | block H^+ currents
CN(C)CCCN1c2ccccc2CCc2ccccc21 [imipramine] | block H^+ currents
COc1ccc(CCN(C)CCCC(C#N)(c2ccc(OC)c(OC)c2)C(C)C)cc1OC (stereo not shown) [verapamil] | block H^+ currents

Biological target: Hv1 channels (Homo sapiens, UniProt Q96D96)
Sequence (Q96D96 whole entry): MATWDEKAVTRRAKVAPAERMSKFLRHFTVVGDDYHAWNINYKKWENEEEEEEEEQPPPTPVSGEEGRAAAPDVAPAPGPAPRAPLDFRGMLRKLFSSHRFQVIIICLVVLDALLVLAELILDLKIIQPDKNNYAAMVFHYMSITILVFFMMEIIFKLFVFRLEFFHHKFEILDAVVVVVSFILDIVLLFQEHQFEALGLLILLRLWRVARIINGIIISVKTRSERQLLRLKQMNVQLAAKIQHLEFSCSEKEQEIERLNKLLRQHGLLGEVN
Conditions: cited from earlier work

Compound | effect on Hv1 proton currents | concentrations inhibiting Hv1
CCCCC/C=C\C/C=C\C/C=C\C/C=C\CCCC(=O)O [arachidonic acid] | enhance Hv1 proton currents | –
CCCCCCCC/C=C\CCCCCCCC(=O)O [oleic acid] | enhance Hv1 proton currents | –
ECRYLFGGCKTTSDCCKHLGCKFRDKYCAWDFTFS [hanatoxin] | – | low micromolar

Biological target: hHv1 (Homo sapiens, UniProt Q96D96)
Sequence (Q96D96 whole entry): as the sequence (Q96D96 whole entry) above
Format: cell-based
Conditions: not given

Compound | Activator/Inhibitor
GCKGFGDSCADSDDCCETFHCKWVFFTSKFMCRRVWGKD [A6] | ACTIVATOR
GCLGDKCADSDDCCETFHCKWVFFTSKFMCRRVWGKD [B1] | ACTIVATOR

Test system: human blood cells
Format: cell-based
Conditions: 100 μM

Compound | production of ROS
[Zn] [zinc] | blocks ROS production to background (control) levels
